Laboratory results as given in US7695923B2, “CFTR polypeptides methods to overcome biosynthetic misprocessing” (Mayo Foundation for Medical Education and Research, priority 1999, dated 2010).
Entries after “also recorded” stand apart in the source; their conditions may differ.

Tests used:
BHK cells [1] = assay: cAMP stimulated 36Cl- efflux from CFTR expressing cells; type: cell-based, Baby hamster; conditions: stimulation with IBMX, Forskolin, dibutyryl cyclic AMP
Procedure: Wild-type and ΔF508 CFTR expressing cells with each of the individual R[…]K substitutions, or all four lysine substitutions were grown to confluence in six well culture dishes. The cells were washed with a modified Ringer's buffer solution (136 mM NaNO3, 3 mM KNO3, 2 mM Ca(NO3)2, 2 mM Mg(NO3)2, 10 mM glucose and 20 mM HEPES, pH 7.4) and loaded for 60 min at room temperature with the same buffer supplemented with 1 μCi Na^36Cl (Amersham) in a volume of 0.5 ml per well. Wells were then washed three times at one min intervals. Samples (0.5 ml) were then collected at 1 minute intervals for scintillation counting with stimulation occurring at time 0 by adding buffer containing 1 mM IBMX, 10 μM Forskolin and 100 μM dibutyryl cyclic AMP. The 0.5 ml samples were collected into 24 well Top Count plates (Packard) and 1 ml of Microcint 40 scintillation cocktail (Packard) was added. ^36Cl^− radioactivity was determined in a Packard Top Count scintillation counter.

BHK cells [2] = assay: Indirect immunofluorescence localization of CFTR with M3A7; type: cell-based, Baby hamster; conditions: M3A7 staining, permeabilized cells
Procedure: Immunofluorescence microscopy in cells expressing ΔF508 CFTR was performed using the highly specific monoclonal antibody, M3A7 (Kartner et al., 1992, supra). Briefly, transformed cells were grown on coverslips, fixed in 70% cold methanol at −20° C. for 10 minutes, blocked using 1% BSA and 5% normal rabbit serum in PBS and were permeabilized by incubating in PBS+0.1% saponin for 1 h at 4° C. CFTR was detected by incubation with 10 μg/ml of M3A7 primary antibody for 60 min at room temperature. Rhodamine linked rabbit anti-mouse secondary antibody (DAKO) was diluted 1:50 in the same blocking solution for a further 1 h incubation. Photomicrographs were made using a Diagnostic Instruments Spot Cam digital camera on a Nikon Microphot-FXA microscope.

BHK cells [3] = assay: 35S-methionine pulse chase of CFTR maturation; type: cell-based, Baby hamster; conditions: for radioactivity of pulse-labeled immature band present in mature band (conversion of precursor to product): after 4 h of chase, electronic autoradiography; for maturation at the end of the pulse: end of the pulse (0 min); for conversion of precursor to mature endoH resistant form during chase: pulse chase
Procedure: Pulse chase studies were performed to determine the rate at which maturation occurred in the arginine-framed triplet substituted wild-type and ΔF508 CFTR polypeptides (FIG. 2). […] Cells were lysed at the end of the labeling period (0 chase time) or were further incubated in complete medium containing 5% fetal bovine serum and 1 mM methionine for the indicated times (chase). Cells were collected and lysed with the NP40 lysis buffer described above and centrifuged at 15,000×g for 15 min at 4° C. to obtain a soluble supernatant which was incubated overnight with the M3A7 primary antibody. Protein G-agarose (Gibco-BRL) was then used to remove the complexes formed which were washed four times with RIPA buffer, dissolved in electrophoresis sample buffer, and subsequently fractionated on SDS-7% acrylamide gels. Following fractionation, the gels were fixed in 30% methanol and 10% acetic acid, equilibrated in 1M sodium salicylate and dried for fluorography. Electronic autoradiography was performed with a Packard Instant Imager. […]

CFTR chloride channels [4] = assay: Single CFTR Cl- channel recording in planar lipid bilayers; type: biochemical, human; conditions: for Conductance: 300 mM Tris-HCl; for Conductance / Long mean closed time τc2 / Mean open time τ0 / Short mean closed time τc1: -75 mV, 2 mM MgATP; for open probability: 25° C.
Procedure: (§1) To further characterize the Cl^− channel activity, membrane vesicles were isolated from cells expressing wild-type, wild-type/4RK and ΔF508/4RK CFTR, fused with planar lipid bilayers and single channels were recorded (Aleksandrov, A. A., and Riordan, J. R. (1998) FEBS Lett. 431:97-101). Vesicles were prepared and phosphorylated with PKA as described previously (Aleksandrov and Riordan, 1998, supra). Briefly, planar lipid bilayers were painted onto a 0.2 mm hole drilled in a Teflon cup using a phospholipid solution in n-decane containing a 2:1 mixture of 1-palmitoyl-2-oleoyl-sn-glycero-3-phosphoethanolamine and 1-palmitoyl-2-oleoyl-sn-glycero-3-phosphoserine (20 mg/ml). The lipid bilayer separated 1.0 ml of solution in the Teflon cup (cis-side) from 4.0 ml of solution in an outer glass chamber (trans-side). Both chambers were magnetically stirred and thermostated. Heating and temperature control were established using a Temperature Control System TC2BIP (Cell MicroControls). Electrical contact with the solutions was provided by Ag/AgCl electrodes through agar bridges filled with 0.5 M KCl. The membrane potential difference was measured as the difference between trans and cis side potentials. The trans side was grounded and electrical measurements of the single channel current were performed under voltage clamp conditions using an Axopatch 200B (Axon Instruments) amplifier. The output signal was filtered with an 8-pole low pass Bessel Filter LPBF-48DG (NPI Electronic GmbH) with cut off frequency of 50 Hz and recorded on magnetic tape using a VR-10B (Instrutech Corp.) digital data recorded on a Sony SLV-440 VCR. For data analysis, the signal was digitized (Digidata 1200; Axon Instruments) with a sampling rate of 500 Hz and analyzed using pCLAMP 6.0 (Axon Instruments) software. Origin 4.0 (Microcal) software was used to fit all points histograms by multi-peak Gaussians. Membrane vesicles were prephosphorylated with PKA and added as a concentrated stock solution to the cis side to obtain a final protein concentration of 10-15 μg/ml. Measurements were made in symmetrical salts solutions containing, in mM: 300 Tris-HCl, 2 MgCl, 1 EGTA, pH=7.2, at a membrane potential of −75 mV. MgATP (2 mM) was added to the cis side only. Under these conditions any cationic channels present in the membrane vesicles are invisible and CFTR chloride channels appeared only after fusion of vesicles with an inside out orientation. Conductances for wild-type, wild-type/4RK and ΔF508/4RK were 10.7, 10.8, and 10.7 pS, respectively. Mean open times τ0 were 230, 1400, and 700 msec respectively. Short mean closed times τc1 were 10 msec in each case. Long mean closed times τc2 were 680, 2000, and 2800 msec, respectively. Conductance as a function of Cl^− concentration and temperature as well as anion selectivity of the CFTR ion channel were tested in control experiments showing good agreement with published data (Tabcharani, J. A et al. (1997) J. Gen. Physiol. 110:341-54).

CFTR chloride channels [5] = biological target: T1, CFTR chloride channels (Homo sapiens, UniProt P13569, DEL508-508/V470M); assay: as above; type: biochemical; conditions: vesicles from BHK cells
T1 construct: These five fragments were ligated together to generate full length CFTR cDNA in pNUT; expressed in transfected cells; host or cells: BHK (baby hamster kidney) cells, stably transfected with pNUT-CFTR constructs; membrane vesicles fused with planar lipid bilayers
T1 sequence (P13569 with tags, fused parts or gaps V470M/DEL508-508): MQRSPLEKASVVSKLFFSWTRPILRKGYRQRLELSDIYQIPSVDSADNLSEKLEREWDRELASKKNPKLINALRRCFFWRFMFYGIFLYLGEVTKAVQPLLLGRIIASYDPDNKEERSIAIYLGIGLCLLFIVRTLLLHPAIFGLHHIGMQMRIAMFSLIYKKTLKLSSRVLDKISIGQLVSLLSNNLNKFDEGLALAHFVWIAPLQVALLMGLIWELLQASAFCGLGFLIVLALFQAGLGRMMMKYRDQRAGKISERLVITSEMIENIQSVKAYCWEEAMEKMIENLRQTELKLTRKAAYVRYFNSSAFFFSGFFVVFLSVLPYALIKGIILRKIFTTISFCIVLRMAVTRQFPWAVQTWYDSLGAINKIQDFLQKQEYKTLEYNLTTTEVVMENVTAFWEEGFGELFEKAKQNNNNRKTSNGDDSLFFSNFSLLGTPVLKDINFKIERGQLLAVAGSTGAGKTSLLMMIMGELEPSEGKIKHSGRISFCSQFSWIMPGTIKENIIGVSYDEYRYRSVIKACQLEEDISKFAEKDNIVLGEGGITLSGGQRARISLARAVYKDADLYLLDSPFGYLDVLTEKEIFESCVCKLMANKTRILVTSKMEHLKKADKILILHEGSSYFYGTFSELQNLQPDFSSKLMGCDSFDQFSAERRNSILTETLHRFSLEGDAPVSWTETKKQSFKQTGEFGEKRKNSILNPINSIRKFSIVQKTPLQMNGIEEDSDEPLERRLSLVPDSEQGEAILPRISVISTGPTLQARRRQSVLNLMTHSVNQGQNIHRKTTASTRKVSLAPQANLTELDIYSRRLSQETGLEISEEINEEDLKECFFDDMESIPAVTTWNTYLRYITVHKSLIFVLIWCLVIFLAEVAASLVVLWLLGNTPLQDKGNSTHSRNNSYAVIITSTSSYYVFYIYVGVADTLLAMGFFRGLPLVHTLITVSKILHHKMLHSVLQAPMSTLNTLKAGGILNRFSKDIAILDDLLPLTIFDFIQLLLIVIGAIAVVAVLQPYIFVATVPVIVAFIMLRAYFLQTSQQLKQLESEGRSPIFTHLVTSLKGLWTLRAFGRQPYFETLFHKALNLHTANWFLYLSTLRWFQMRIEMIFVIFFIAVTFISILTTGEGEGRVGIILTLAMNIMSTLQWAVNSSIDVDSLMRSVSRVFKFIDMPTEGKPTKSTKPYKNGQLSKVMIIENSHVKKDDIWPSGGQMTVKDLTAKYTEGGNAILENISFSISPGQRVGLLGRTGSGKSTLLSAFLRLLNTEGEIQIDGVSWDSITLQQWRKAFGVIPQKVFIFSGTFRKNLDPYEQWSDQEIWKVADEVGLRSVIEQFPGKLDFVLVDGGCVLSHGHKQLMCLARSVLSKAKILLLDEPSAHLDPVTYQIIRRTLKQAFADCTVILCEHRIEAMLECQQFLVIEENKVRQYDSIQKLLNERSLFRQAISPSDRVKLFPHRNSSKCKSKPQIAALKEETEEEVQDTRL
Procedure: as §1

BHK cells [6] = assay: Western blot of BHK cell extracts with M3A7 antibody, with endoglycosidase H digestion; type: cell-based, Baby hamster; conditions: ΔF508 CFTR background; for mature bands of lower mobility on Western blot: steady state, BHK cell extracts
Procedure: Baby hamster kidney cells (BHK) cells grown at 37° C. in 5% CO2 were employed as hosts for CFTR expression as described previously (Loo et al. (1998) EMBO J. 17:6879-6887; and Seibert, F. S et al. (1995) J. Biol. Chem. 270:2158-2162). Subconfluent BHK cells were transformed with the above wild-type or ΔF508 CFTR constructs using calcium phosphate precipitation (Chen, C., and Okayama, H. (1987) Mol. Cell. Biol. 7: 2745-2752). After growth in selective media containing 500 μM methotrexate, individual colonies were picked and amplified in the same selective media.
BHK cells were grown, collected and then lysed with 1% SDS; the DNA was sheared by cycling through a 22 gauge needle. Protein lysate (20 μg) from the sample were then subjected to SDS-PAGE on 7% polyacrylamide gels. Protein was electroblotted from the gel to nitrocellulose membrane and the membrane was probed with a mouse anti-CFTR monoclonal antibody, M3A7 (Kartner, N. et al. (1992) Nat. Genetics 1:321-7). Chemiluminescent detection was performed according to the manufacturer's recommendations (Pierce).
For endoglycosidase H treatment, cell lysates were diluted with 10 volumes of buffer (50 mM sodium acetate, pH 5.3, 0.5% Nonidet P-40, 1% β-mercaptoethanol plus a protease inhibitor mixture: 2 μg/ml aprotinin, 120 μg/ml benzamidine, […], 1 μg/ml leupepetin and 50 μg/ml pefabloc). This yielded a final SDS concentration of 0.1%. Samples were then incubated for 4 hr at 37° C. with 10 mU of endoglycosidase H (Boehringer Mannheim). The reactions were stopped by addition of 4 volumes of cold ethanol (−20° C.) to precipitate the proteins. Precipitated proteins were then resuspended in gel loading dye and subjected to SDS-PAGE and immunoblotting as above.

BHK cells [7] = assay: Cell surface biotinylation of CFTR on intact cell monolayers; type: cell-based, Baby hamster
Procedure: For cell surface biotinylation studies, cells grown to about 90% confluency were treated with 2 mM sodium butyrate for 18 h to augment CFTR expression. Dishes of cells were then placed on ice in a cold room for 30 minutes and all subsequent steps were performed. Cells washed with PBS containing 0.1 mM CaCl2 and 1.0 mM MgCl2, were labeled using 3 ml of 1 mg/ml EZ-Link Sulfo-NHS-SS-biotin (Pierce) in PBS, pH 8.0 for 30 minutes. Following washes in PBS+1% BSA and PBS, cells were incubated for 30 minutes in NP40 lysis buffer (0.09% NP40, 150 mM NaCl, 10 mM NH4MoO4, 50 mM Tris-HCl, pH 7.4), scraped and transferred to microfuge tubes. Insoluble materials were removed by centrifugation. Biotinylated proteins were then precipitated by incubation overnight with 50 μl of packed immobilized streptavidin beads (Pierce). Beads were washed with RIPA buffer (0.1% SDS, 1% DOC, 1% Triton X-100, 150 mM NaCl, 50 mM Tris-Hcl, pH 7.4) and proteins eluted with gel sample buffer for electrophoresis and Western blotting with M3A7 as detailed above.

For “R516K: ΔF508 CFTR in which arginine 516 has been substituted with lysine”, the “cAMP stimulated 36Cl- efflux rate” value (BHK cells [1]) was “No detectable increase in efflux rate”.

“R555K: ΔF508 CFTR in which arginine 555 has been substituted with lysine” was tested, and the “cAMP stimulated 36Cl- efflux rate” value (BHK cells [1]) was “No detectable increase in efflux rate”.

“R766K: ΔF508 CFTR in which arginine 766 has been substituted with lysine” was tested, and the “cAMP stimulated 36Cl- efflux rate” value (BHK cells [1]) was “No detectable increase in efflux rate”.

“wild-type CFTR: full-length human CFTR expressed from pNUT vector in BHK cells [reference compound]” was tested, and the “CFTR localization by immunofluorescence” value (BHK cells [2]) was “strong uniform staining of mature CFTR over the entire cell surface”, the “radioactivity of pulse-labeled immature band present in mature band (conversion of precursor to product)” value (BHK cells [3]) was roughly 30% and the “maturation at the end of the pulse” value (BHK cells [3]) was “no maturation”. The “conversion of precursor to mature endoH resistant form during chase” value (BHK cells [3]) was “begins within an hour”, the Conductance (CFTR chloride channels [4]) was 10.7 pS and the open probability (CFTR chloride channels [4]) was roughly 0.25. For the same substance, the “Long mean closed time τc2” value (CFTR chloride channels [4]) was 680 ms, the “Mean open time τ0” value (CFTR chloride channels [4]) was 230 ms and the “Short mean closed time τc1” value (CFTR chloride channels [4]) was 10 ms.

“wild-type/4RK: wild-type CFTR in which four arginines (R29K, R516K, R555K, R766K) have been substituted with lysine” was tested, and the “maturation at the end of the pulse” value (BHK cells [3]) was “already evident”, the “conversion of precursor to mature endoH resistant form during chase” value (BHK cells [3]) was “more rapid maturation” and the Conductance (CFTR chloride channels [4]) was 10.8 pS. For the same substance, the open probability (CFTR chloride channels [4]) was roughly 0.61, the “Long mean closed time τc2” value (CFTR chloride channels [4]) was 2000 ms and the “Mean open time τ0” value (CFTR chloride channels [4]) was 1400 ms. For the same substance, the “Short mean closed time τc1” value (CFTR chloride channels [4]) was 10 ms.

“ΔF508 CFTR: export-incompetent cystic fibrosis causing CFTR mutant lacking phenylalanine 508” was tested, and the “CFTR localization by immunofluorescence” value (BHK cells [2]) was “Perinuclear staining only”, the “conversion of precursor to mature endoH resistant form during chase” value (BHK cells [3]) was “no conversion; also recorded: fails to mature even after two hours” and the “detection of CFTR-like single channels” value (CFTR chloride channels [5]) was “never been able to detect CFTR-like single channels”. The “cAMP stimulated 36Cl- efflux rate” value (BHK cells [1]) was “No detectable increase in efflux rate”.

With “ΔF508/4RK: ΔF508 CFTR having all four arginines (29, 516, 555, 766) substituted with lysine” the “CFTR localization by immunofluorescence” value (BHK cells [2]) was “extension of the staining more peripherally”, the “radioactivity of pulse-labeled immature band present in mature band (conversion of precursor to product)” value (BHK cells [3]) was “approximately 10%” and the “conversion of precursor to mature endoH resistant form during chase” value (BHK cells [3]) was “readily apparent”. The “endoglycosidase H sensitivity of the large bands” value (BHK cells [6]) was “Endoglycosidase-H insensitivity”, the “mature bands of lower mobility on Western blot” value (BHK cells [6]) was “bands of lower mobility are produced” and the Conductance (CFTR chloride channels [4]) was 10.7 pS. The “Long mean closed time τc2” value (CFTR chloride channels [4]) was 2800 ms, the “Mean open time τ0” value (CFTR chloride channels [4]) was 700 ms and the “Short mean closed time τc1” value (CFTR chloride channels [4]) was 10 ms. For the same substance, the “accessibility of mature band to surface biotinylation” value (BHK cells [7]) was “accessible to the impermeant amino reactive biotinylation reagent” and the “cAMP stimulated 36Cl- efflux rate” value (BHK cells [1]) was “more than half as rapid as those from cells expressing wild-type CFTR”.

For “ΔF508/R29K: ΔF508 CFTR in which arginine 29 has been substituted with lysine”, the “endoglycosidase H sensitivity of the large bands” value (BHK cells [6]) was “Endoglycosidase-H insensitivity”, the “mature bands of lower mobility on Western blot” value (BHK cells [6]) was “bands of lower mobility are produced” and the “cAMP stimulated 36Cl- efflux rate” value (BHK cells [1]) was “low rates of ^36Cl^− efflux occurred at delayed times after stimulation”.
